In patent publication US9714247B2, “Multiple kinase pathway inhibitors” (Mannkind Corporation, priority 2012, dated 2017):
Read-outs that look alike come from different tables or passages of the source.

What was measured:
Ramos = assay: CellTiter-Glo proliferation/viability assay; format: cell-based, human; conditions: read-out: Ramos EC50
BTK = BTK (Homo sapiens (Human), UniProt Q06187)
DoHH2 = assay: CellTiter-Glo proliferation/viability assay; format: cell-based, human; conditions: 48 hrs, read-out: DoHH2 EC50
Lyn = Lyn (Homo sapiens (Human), UniProt P07948); conditions: read-out: Lyn IC50
Src = Src (Homo sapiens (Human), UniProt P12931); conditions: read-out: Src IC50
Src, sequence (P12931 whole entry, looked up): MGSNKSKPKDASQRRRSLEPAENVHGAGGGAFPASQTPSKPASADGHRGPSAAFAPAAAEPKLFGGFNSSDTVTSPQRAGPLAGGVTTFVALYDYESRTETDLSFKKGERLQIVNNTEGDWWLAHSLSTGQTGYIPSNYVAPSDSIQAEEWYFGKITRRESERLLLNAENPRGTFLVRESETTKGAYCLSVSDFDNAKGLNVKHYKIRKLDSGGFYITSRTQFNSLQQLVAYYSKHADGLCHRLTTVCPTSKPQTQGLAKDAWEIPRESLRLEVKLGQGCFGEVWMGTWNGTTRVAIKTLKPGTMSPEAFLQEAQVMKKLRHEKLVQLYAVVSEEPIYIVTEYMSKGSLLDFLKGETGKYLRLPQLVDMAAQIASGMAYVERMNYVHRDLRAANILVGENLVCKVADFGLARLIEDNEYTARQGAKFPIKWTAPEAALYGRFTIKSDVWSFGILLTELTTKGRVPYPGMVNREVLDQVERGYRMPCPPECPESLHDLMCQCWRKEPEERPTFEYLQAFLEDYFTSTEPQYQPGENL

BTK, sequence (Q06187 whole entry): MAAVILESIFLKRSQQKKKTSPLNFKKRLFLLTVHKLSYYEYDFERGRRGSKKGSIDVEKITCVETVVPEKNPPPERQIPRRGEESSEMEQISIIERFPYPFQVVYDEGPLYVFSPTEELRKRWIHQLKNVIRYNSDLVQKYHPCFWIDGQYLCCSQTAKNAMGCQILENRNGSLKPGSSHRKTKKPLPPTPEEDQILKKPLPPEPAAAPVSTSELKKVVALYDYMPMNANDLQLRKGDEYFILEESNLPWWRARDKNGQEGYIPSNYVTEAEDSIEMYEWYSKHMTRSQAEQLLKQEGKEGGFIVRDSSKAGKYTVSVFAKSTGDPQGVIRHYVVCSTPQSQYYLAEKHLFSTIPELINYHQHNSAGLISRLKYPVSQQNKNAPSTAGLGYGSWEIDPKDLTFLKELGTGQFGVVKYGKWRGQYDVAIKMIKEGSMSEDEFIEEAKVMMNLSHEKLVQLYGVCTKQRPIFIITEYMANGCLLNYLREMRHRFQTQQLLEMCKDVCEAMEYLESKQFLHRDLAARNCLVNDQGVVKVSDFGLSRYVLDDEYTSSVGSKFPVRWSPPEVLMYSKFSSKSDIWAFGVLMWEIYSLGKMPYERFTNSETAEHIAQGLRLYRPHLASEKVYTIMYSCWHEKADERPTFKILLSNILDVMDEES
Lyn, sequence (P07948 whole entry): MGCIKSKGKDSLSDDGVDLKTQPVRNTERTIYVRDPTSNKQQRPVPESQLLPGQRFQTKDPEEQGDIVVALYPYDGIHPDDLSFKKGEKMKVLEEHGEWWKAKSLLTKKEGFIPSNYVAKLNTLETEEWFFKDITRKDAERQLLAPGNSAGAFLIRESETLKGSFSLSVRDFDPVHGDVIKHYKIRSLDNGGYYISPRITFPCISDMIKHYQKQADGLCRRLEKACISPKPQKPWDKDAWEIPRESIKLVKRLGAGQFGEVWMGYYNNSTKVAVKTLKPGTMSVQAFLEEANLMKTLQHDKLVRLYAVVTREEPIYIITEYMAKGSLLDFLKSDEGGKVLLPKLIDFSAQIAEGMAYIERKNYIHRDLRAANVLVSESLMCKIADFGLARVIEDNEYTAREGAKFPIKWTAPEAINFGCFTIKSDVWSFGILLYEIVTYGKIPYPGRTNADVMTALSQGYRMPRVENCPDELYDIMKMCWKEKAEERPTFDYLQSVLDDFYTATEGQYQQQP

SMILES	EC50 (Ramos; Homo sapiens, Ramos, 48 hrs) [nM]	IC50 (BTK; read-out: BTK IC50) [nM]	IC50 (Lyn) [nM]	IC50 (Src) [nM]	IC50 (BTK) [nM]	EC50 (Ramos; Homo sapiens, Ramos, 48 h) [nM]	EC50 (Ramos; 48 hrs) [nM]	EC50 (DoHH2; Homo sapiens, DOHH-2) [nM]	EC50 (DoHH2) [nM]
CCn1c(=O)c(C2CCCCC2)cc2cnc(Nc3ccc(C)cn3)cc21 [Compound 12, 3-Cyclohexyl-1-ethyl-7-(5-methyl-pyridin-2-ylamino)-1H-[1,6]naphthyridin-2-one]	> 10000	> 5000	> 5000	> 5000				> 10000	
CCn1c(=O)c(-c2c(F)ccc(F)c2O)cc2cnc(Nc3ccc(N(C)C4CCN(C)CC4)cn3)cc21 [Compound 123, 3-(3,6-difluoro-2-hydroxyphenyl)-1-ethyl-7-((5-(methyl(1-methylpiperidin-4-yl)amino)pyridin-2-yl)amino)-1,6-naphthyridin-2(1H)-one]	1000 to 10000	< 100	< 100	< 100				< 1000	
CCn1c(=O)c(-c2cc(OC)ccc2F)cc2cnc(Nc3ccc(N(C)C4CCN(C)CC4)cn3)cc21 [Compound 119, 1-ethyl-3-(2-fluoro-5-methoxyphenyl)-7-((5-(methyl(1-methylpiperidin-4-yl)amino)pyridin-2-yl)amino)-1,6-naphthyridin-2(1H)-one]	1000 to 10000				100 to 1000			< 1000	
CCn1c(=O)c(-c2c(C)cc(F)cc2C)cc2cnc(Nc3ccc(N(C)C4CCN(C)CC4)cn3)cc21 [Compound 124, 1-ethyl-3-(4-fluoro-2,6-dimethylphenyl)-7-((5-(methyl(1-methylpiperidin-4-yl)amino)pyridin-2-yl)amino)-1,6-naphthyridin-2(1H)-one]	> 10000	< 100	< 100	< 100				< 1000	
CCn1c(=O)c(-c2c(O)cccc2Cl)cc2cnc(Nc3ccc(N(C)C4CCN(C)CC4)cn3)cc21 [Compound 122, 3-(2-chloro-6-hydroxyphenyl)-1-ethyl-7-((5-(methyl(1-methylpiperidin-4-yl)amino)pyridin-2-yl)amino)-1,6-naphthyridin-2(1H)-one]	1000 to 10000	< 100	< 100	< 100				< 1000	
CCn1c(=O)c(-c2c(F)cccc2OC)cc2cnc(Nc3ccc(N(C)C4CCN(C)CC4)cn3)cc21 [Compound 118, 1-ethyl-3-(2-fluoro-6-methoxyphenyl)-7-((5-(methyl(1-methylpiperidin-4-yl)amino)pyridin-2-yl)amino)-1,6-naphthyridin-2(1H)-one]		< 100	< 100	< 100		1000 to 10000		< 1000	
CCn1c(=O)c(-c2c(Cl)cccc2Cl)cc2cnc(Nc3ccc(N(C)C4CCN(C)CC4)cn3)cc21 [Compound 121, 3-(2,6-dichlorophenyl)-1-ethyl-7-((5-(methyl(1-methylpiperidin-4-yl)amino)pyridin-2-yl)amino)-1,6-naphthyridin-2(1H)-one]		< 100	< 100	< 100		1000 to 10000		< 1000	
CN1CCC(N(C)c2ccc(Nc3cc4[nH]c(=O)c(-c5c(F)cccc5F)cc4cn3)nc2)CC1 [Compound 140, 3-(2,6-difluorophenyl)-7-((5-(methyl(1-methylpiperidin-4-yl)amino)pyridin-2-yl)amino)-1,6-naphthyridin-2(1H)-one]	1000 to 10000	< 100	< 100	< 100				< 1000	
CCn1c(=O)c(-c2cccc(F)c2)cc2cnc(Nc3ccc(C)cn3)cc21 [Compound 29, 1-ethyl-3-(3-fluorophenyl)-7-(5-methylpyridin-2-ylamino)-1,6-naphthyridin-2(1H)-one]	> 10000	> 5000	> 5000	> 5000				> 10000	
CCN(CC)CCOc1ccc(Nc2cc3c(cn2)cc(C(C)C)c(=O)n3C2CC2)nc1 [Compound 36, 1-Cyclopropyl-7-[5-(2-diethylamino-ethoxy)-pyridin-2-ylamino]-3-isopropyl-1H-[1,6]naphthyridin-2-one]						> 10000		1000 to 10000	
CCOC(=O)/C=C/c1cc2cnc(Nc3ccc(C)cn3)cc2n(CC)c1=O [Compound 38]	> 10000	> 5000	> 5000	> 5000				> 10000	
CN1CCC(N(C)c2ccc(Nc3cc4c(cn3)cc(-c3c(F)cccc3F)c(=O)n4C3CCCC3)nc2)CC1 [Compound 139, 1-cyclopentyl-3-(2,6-difluorophenyl)-7-((5-(methyl(1-methylpiperidin-4-yl)amino)pyridin-2-yl)amino)-1,6-naphthyridin-2(1H)-one]		< 100	< 100	< 100		1000 to 10000		< 1000	
CCn1c(=O)c(C(C)C)cc2cnc(Nc3ccc(C)cn3)cc21 [Compound 13, 1-Ethyl-3-isopropyl-7-(5-methyl-pyridin-2-ylamino)-1H-[1,6]naphthyridin-2-one]			> 5000	> 5000	1000 to 5000	1000 to 10000		1000 to 10000	

More lines, main results first:

EC50 (Ramos; Homo sapiens, Ramos, 48 hrs) [nM]	IC50 (BTK; read-out: BTK IC50) [nM]	IC50 (Lyn) [nM]	IC50 (Src) [nM]	IC50 (BTK) [nM]	EC50 (Ramos; Homo sapiens, Ramos, 48 h) [nM]	EC50 (Ramos; 48 hrs) [nM]	SMILES	EC50 (DoHH2; Homo sapiens, DOHH-2) [nM]	EC50 (DoHH2) [nM]
		> 5000	> 5000	1000 to 5000	> 10000		CCn1c(=O)c(-c2ccccc2)cc2cnc(Nc3cccnn3)cc21 [Compound 112, 1-ethyl-3-phenyl-7-(pyridazin-3-ylamino)-1,6-naphthyridin-2(1H)-one]	> 10000	
		< 100	< 100		> 10000		O=c1c(-c2c(F)cccc2F)cc2cnc(Nc3ccc(F)cn3)cc2n1-c1ccccc1 [Compound 81, 3-(2,6-difluorophenyl)-7-((5-fluoropyridin-2-yl)amino)-1-phenyl-1,6-naphthyridin-2(1H)-one]	1000 to 10000	
		< 100	< 100	100 to 1000	1000 to 10000		CCN(CC)CCOc1ccc(Nc2cc3c(cn2)cc(-c2c(F)ccc(Cl)c2F)c(=O)n3CC)nc1 [Compound 97, 3-(3-chloro-2,6-difluorophenyl)-7-((5-(2-(diethylamino)ethoxy)pyridin-2-yl)amino)-1-ethyl-1,6-naphthyridin-2(1H)-one]	< 1000	
	< 100	< 100	< 100			1000 to 10000	CCN(CC)CCOc1ccc(Nc2cc3c(cn2)cc(-c2c(F)cccc2F)c(=O)n3C2CCOC2)nc1 (single isomer, unassigned) [Compound 144, (R or S)-7-((5-(2-(diethylamino)ethoxy)pyridin-2-yl)amino)-3-(2,6-difluorophenyl)-1-(tetrahydrofuran-3-yl)-1,6-naphthyridin-2(1H)-one]		< 1000
		< 100	< 100	100 to 1000	> 10000		CCn1c(=O)c(-c2c(Cl)cccc2Cl)cc2cnc(Nc3ccc(F)cn3)cc21 [Compound 76, 3-(2,6-dichlorophenyl)-1-ethyl-7-((5-fluoropyridin-2-yl)amino)-1,6-naphthyridin-2(1H)-one]	< 1000	
> 10000	> 5000						CCn1c(=O)c(-c2ccccc2)cc2cnc(NC3=NCCS3)cc21 [Compound 91]	> 10000	
		< 100	> 5000		> 10000		O=c1c(-c2c(F)cccc2F)cc2cnc(Nc3ccc(F)cn3)cc2n1C1CCOCC1 [Compound 80, 3-(2,6-difluorophenyl)-7-((5-fluoropyridin-2-yl)amino)-1-(tetrahydro-2H-pyran-4-yl)-1,6-naphthyridin-2(1H)-one]	< 1000	
		> 5000	> 5000	1000 to 5000	1000 to 10000		CCn1c(=O)ccc2cnc(Nc3ccc(C)cn3)cc21 [Compound 87]	1000 to 10000	
> 10000		< 100	< 100	100 to 1000			O=c1c(-c2c(F)cccc2F)cc2cnc(Nc3ccc(F)cn3)cc2n1CCCN1CCOCC1 [Compound 131, 3-(2,6-difluorophenyl)-7-((5-fluoropyridin-2-yl)amino)-1-(3-morpholinopropyl)-1,6-naphthyridin-2(1H)-one]	< 1000	
> 10000		< 100	< 100	100 to 1000			CCN(CC)CCOc1ccc(Nc2cc3c(cn2)cc(-c2ccccc2)c(=O)n3-c2ccncc2)nc1 [Compound 82, 7-[5-(2-Diethylamino-ethoxy)-pyridin-2-ylamino]-3-phenyl-1-pyridin-4-yl-1H-[1,6]naphthyridin-2-one]	< 1000	
1000 to 10000	< 100	< 100	< 100				CN(C)CCCn1c(=O)c(-c2c(F)cccc2F)cc2cnc(Nc3ccc(F)cn3)cc21 [Compound 130, 3-(2,6-difluorophenyl)-1-(3-(dimethylamino)propyl)-7-((5-fluoropyridin-2-yl)amino)-1,6-naphthyridin-2(1H)-one]	< 1000	
> 10000	< 100	< 100	< 100				CN1CCN(CCCn2c(=O)c(-c3c(F)cccc3F)cc3cnc(Nc4ccc(F)cn4)cc32)CC1 [Compound 132, 3-(2,6-difluorophenyl)-7-((5-fluoropyridin-2-yl)amino)-1-(3-(4-methylpiperazin-1-yl)propyl)-1,6-naphthyridin-2(1H)-one]	< 1000	
> 10000	> 5000						CCn1c(=O)c(-c2ccccc2)cc2cnc(NC3=NCCO3)cc21 [Compound 90]	> 10000	
		< 100	1000		> 10000		CCN(CC)CCOc1ccc(Nc2cc3c(cn2)cc(-c2ccccc2)c(=O)n3CC)cc1 [Compound 86]	1000 to 10000	
